According to US20050085557A1, “Therapeutic procedures” (priority 2003, published 2005):

Experiments:
J774.1 macrophages = test: Lipid-loading assay (foam cell formation); format: cell-based, murine; conditions: LDL 100 μg/mL with compound (20 μM), 72 h, unactivated J774.1 macrophages
Description: Macrophages were first grown for 24 h in RPMI-1640 containing 10% fetal bovine serum and then incubated for 72 h in the same media containing LDL (100 μg/mL). Cells were fixed with 4% formaldehyde and stained with hematoxylin and oil red O such that lipid granules stained a darker red color. Magnification×100.
J774.1 macrophages were grown for 24 h in RPMI-1640 containing 10% fetal bovine serum. […] Cells were fixed with 4% formaldehyde and stained with hematoxylin and oil red O such that lipid granules stained a darker red color. Magnification×100.
Lipid-loading assay (foam cellformation). J774.1 macrophages were incubated in ATCC-recommended media containing 10% fetal bovine serum under a controlled atmosphere of 5 or 7% CO2 at 37° C., in 8-well chamber slides. […] At termination, cells were washed twice with PBS (pH 7.4). The cells were then fixed with 6% (v/v) paraformaldehyde in PBS for 30 minutes, rinsed with propylene glycol for 2 minutes and lipids were stained with 5 mg/ml Oil Red O for 8 minutes. The cells were counterstained with Harris' hematoxylin for 45 seconds, and background staining was removed with […] followed by washing once in PBS and once in tap water. […] The number of lipid-laden cells was scored out of a total of at least 100 cells counted in a single field in each slide, and expressed as a percentage of total cells. […]

LDL / apoB-100 = target: T1, LDL / apoB-100 (Homo sapiens, UniProt P04114); test: Circular dichroism of LDL secondary structure; format: biochemical; conditions: LDL 100 μg/ml, compound 10 μM, PBS pH 7.4, 37° C., 48 h; for random coil of LDL after incubation (circular dichroism): normal LDL 27±2%; for a helical structure of LDL after incubation (circular dichroism): normal LDL ~40±2%
T1 construct: Circular dichroism (CD) spectra of LDL (100 μg/ml)
T1 sequence (P04114 28-4563, species assumed): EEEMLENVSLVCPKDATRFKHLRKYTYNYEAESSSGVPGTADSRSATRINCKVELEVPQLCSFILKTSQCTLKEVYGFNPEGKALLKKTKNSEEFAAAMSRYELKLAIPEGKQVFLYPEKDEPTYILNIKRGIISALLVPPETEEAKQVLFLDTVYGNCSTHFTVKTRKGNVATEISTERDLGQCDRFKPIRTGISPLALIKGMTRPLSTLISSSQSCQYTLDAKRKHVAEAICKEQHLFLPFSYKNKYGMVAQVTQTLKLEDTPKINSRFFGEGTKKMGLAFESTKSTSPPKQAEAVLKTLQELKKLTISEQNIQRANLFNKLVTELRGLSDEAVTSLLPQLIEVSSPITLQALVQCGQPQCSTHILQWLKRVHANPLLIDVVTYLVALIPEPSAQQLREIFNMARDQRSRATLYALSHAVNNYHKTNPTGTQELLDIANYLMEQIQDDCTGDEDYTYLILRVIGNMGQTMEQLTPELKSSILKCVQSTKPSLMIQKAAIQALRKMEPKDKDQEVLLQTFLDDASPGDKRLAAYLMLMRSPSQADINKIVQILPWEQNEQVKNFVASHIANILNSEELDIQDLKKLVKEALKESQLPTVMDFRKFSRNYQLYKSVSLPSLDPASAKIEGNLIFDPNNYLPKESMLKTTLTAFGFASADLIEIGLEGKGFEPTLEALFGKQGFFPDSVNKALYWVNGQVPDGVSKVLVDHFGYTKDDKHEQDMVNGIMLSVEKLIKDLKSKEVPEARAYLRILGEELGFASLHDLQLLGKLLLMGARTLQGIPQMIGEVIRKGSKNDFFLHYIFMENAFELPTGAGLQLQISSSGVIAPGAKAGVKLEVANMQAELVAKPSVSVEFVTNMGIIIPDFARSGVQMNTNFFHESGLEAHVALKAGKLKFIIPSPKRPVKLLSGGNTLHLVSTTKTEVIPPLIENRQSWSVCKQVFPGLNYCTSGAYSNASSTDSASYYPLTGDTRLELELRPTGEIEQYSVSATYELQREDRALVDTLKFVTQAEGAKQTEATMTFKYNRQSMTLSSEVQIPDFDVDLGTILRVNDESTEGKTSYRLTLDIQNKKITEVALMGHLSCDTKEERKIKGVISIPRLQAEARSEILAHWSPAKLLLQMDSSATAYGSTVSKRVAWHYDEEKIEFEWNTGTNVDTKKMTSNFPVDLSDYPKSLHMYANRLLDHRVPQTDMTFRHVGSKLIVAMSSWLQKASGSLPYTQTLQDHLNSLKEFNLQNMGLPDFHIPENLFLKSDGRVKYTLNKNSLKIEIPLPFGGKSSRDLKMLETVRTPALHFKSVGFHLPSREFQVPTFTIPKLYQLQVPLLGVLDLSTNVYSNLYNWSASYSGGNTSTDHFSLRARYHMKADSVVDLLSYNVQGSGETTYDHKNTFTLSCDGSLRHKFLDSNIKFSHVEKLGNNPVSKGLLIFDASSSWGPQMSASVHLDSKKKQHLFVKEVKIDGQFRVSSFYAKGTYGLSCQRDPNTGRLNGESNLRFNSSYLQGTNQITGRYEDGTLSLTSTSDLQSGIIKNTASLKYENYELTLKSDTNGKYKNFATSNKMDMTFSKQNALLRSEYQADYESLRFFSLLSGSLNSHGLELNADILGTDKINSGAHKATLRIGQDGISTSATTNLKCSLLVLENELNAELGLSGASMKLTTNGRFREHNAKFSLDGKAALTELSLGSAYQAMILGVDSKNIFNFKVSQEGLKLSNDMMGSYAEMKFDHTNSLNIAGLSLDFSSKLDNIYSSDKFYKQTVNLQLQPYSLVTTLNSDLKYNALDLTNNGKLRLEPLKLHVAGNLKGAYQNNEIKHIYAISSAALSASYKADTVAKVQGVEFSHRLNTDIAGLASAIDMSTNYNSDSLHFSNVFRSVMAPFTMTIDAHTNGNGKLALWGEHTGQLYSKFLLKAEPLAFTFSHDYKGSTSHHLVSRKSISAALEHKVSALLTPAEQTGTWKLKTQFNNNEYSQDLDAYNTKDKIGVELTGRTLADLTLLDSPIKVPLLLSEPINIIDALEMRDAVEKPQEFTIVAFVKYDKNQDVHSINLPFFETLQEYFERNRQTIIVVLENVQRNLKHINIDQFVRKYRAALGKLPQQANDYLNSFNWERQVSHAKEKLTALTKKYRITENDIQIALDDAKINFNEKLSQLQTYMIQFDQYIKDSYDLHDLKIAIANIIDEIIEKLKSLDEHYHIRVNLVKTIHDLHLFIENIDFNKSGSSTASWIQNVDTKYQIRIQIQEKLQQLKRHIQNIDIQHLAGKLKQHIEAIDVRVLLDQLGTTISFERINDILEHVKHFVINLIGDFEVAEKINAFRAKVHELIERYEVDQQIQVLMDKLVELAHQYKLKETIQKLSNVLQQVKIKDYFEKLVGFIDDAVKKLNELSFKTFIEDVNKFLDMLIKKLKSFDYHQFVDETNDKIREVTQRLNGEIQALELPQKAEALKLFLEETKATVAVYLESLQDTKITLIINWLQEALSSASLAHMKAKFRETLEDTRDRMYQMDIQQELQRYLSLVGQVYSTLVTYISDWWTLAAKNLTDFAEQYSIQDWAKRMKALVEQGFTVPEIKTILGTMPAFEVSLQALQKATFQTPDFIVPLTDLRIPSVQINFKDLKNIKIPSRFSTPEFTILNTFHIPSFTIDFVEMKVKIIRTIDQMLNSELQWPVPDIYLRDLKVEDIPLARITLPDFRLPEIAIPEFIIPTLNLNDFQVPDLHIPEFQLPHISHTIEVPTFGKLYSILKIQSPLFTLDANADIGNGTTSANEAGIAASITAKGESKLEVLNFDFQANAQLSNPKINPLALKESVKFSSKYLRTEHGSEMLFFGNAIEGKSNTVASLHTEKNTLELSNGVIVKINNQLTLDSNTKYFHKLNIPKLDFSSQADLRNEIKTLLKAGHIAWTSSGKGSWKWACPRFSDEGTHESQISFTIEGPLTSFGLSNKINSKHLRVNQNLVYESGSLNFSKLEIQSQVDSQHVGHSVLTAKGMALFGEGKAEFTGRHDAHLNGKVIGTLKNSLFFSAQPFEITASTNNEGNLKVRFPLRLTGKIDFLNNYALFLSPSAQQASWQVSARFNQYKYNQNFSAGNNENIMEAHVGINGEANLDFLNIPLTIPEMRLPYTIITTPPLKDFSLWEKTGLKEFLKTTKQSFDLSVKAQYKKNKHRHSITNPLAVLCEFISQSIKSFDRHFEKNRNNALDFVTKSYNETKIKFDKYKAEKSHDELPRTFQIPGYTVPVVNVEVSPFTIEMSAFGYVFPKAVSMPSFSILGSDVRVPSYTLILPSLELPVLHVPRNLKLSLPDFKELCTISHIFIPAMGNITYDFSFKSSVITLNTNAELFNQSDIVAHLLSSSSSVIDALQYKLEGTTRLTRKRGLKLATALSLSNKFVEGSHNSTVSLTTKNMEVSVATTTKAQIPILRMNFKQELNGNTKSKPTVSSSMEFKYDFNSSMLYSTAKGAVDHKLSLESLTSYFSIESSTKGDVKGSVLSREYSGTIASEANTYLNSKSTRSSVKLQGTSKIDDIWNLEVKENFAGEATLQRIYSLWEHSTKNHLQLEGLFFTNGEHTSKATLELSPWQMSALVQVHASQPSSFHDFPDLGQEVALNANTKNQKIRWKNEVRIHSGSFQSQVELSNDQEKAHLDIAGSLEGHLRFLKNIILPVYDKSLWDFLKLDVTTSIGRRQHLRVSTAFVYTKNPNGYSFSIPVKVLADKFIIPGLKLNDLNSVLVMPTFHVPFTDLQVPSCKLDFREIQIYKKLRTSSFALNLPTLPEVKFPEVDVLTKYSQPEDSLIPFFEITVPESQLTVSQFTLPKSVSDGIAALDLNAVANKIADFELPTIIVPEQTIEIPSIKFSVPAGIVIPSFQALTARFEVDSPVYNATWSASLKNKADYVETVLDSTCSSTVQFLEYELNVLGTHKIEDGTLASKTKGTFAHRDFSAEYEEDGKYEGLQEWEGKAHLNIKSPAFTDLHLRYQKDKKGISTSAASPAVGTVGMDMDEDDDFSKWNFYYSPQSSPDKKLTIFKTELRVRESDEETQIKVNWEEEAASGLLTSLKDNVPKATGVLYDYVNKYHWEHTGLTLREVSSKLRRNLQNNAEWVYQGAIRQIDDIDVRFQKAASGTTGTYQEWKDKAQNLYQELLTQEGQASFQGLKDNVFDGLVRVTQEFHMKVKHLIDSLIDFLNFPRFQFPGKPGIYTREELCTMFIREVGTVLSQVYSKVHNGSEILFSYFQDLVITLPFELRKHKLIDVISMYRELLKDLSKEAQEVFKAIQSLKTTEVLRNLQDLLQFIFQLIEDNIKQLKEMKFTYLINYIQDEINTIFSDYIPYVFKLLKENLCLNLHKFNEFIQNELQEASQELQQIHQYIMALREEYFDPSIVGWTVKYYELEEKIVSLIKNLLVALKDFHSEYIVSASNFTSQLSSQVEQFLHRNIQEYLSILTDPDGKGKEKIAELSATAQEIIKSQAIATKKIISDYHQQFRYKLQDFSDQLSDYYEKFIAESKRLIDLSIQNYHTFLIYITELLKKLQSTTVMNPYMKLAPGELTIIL
Description: Circular dichroism. […] Spectra were recorded in the peptidic range (200-260 nm). To increase the signal-to-noise ratio, multiple spectra (three) were averaged for each measurement.

[1] = test system: T-lymphocyte cell line (Jurkat E6.1); test: Cytotoxicity assay (LDH release), Jurkat E6.1; format: cell-based; conditions: FIG. 6B; in this concentration range (0-100 μM)
Description: Cytotoxicity assays. WI-L2 human B-lymphocyte line, HAAE-1 human abdominal aortic endothelial line, MH-S murine alveolar macrophage line, and J774A.1 murine tissue macrophage line were obtained from the ATCC. Human aortic endothelial cells (HAEC) and human vascular smooth muscle cells (VSMS) were obtained from Cambrex Bio Science. […] Cells were cultured in ATCC-recommended media with 10% fetal calf serum. Cells were incubated in a controlled atmosphere at 37° C., with 5 or 7% CO2. For lactate dehydrogenase (LDH) release assays, adherent cells were harvested either by addition of 0.05% trypsin/EDTA or by scraping. The cells obtained were seeded onto 96-well microtiter plates (25,000 cells/well) and allowed to recover for 24-48 h. Cells were washed gently and media replaced with fresh media containing 5% fetal calf serum. […] Cytotoxicity was then determined by measuring lactate dehydrogenase (LDH) release from cells in culture. […] 100% Cytotoxicity was defined as the maximum amount of LDH released by dead cells as shown by trypan blue exclusion, or the highest amount of LDH detected upon lysis of cells by 0.9% Triton X-100. The IC50 values were determined by comparison of the raw duplicate data for concentration versus cytotoxicity (%) to non-linear regression analysis (Hill plot) using Graphpad v3.0 software for Macintosh. […]

[2] = test system: human B-lymphocyte (WI-L2) cell line; test: Cytotoxicity assay (LDH release), WI-L2; format: cell-based; conditions: FIG. 6A; in this concentration range (0-100 μM)
Description: Cytotoxicity assays. WI-L2 human B-lymphocyte line, HAAE-1 human abdominal aortic endothelial line, MH-S murine alveolar macrophage line, and J774A.1 murine tissue macrophage line were obtained from the ATCC. Human aortic endothelial cells (HAEC) and human vascular smooth muscle cells (VSMS) were obtained from Cambrex Bio Science. Jurkat E6-IT-lymphocytes were kindly provided by Dr. J. Kaye (The Scripps Research Institute). Cells were cultured in ATCC-recommended media with 10% fetal calf serum. Cells were incubated in a controlled atmosphere at 37° C., with 5 or 7% CO2. For lactate dehydrogenase (LDH) release assays, adherent cells were harvested either by addition of 0.05% trypsin/EDTA or by scraping. The cells obtained were seeded onto 96-well microtiter plates (25,000 cells/well) and allowed to recover for 24-48 h. […] Cytotoxicity was then determined by measuring lactate dehydrogenase (LDH) release from cells in culture. […] 100% Cytotoxicity was defined as the maximum amount of LDH released by dead cells as shown by trypan blue exclusion, or the highest amount of LDH detected upon lysis of cells by 0.9% Triton X-100. The IC50 values were determined by comparison of the raw duplicate data for concentration versus cytotoxicity (%) to non-linear regression analysis (Hill plot) using Graphpad v3.0 software for Macintosh. […]

[3] = Aldolization of ketoaldehyde 4a with amino acids (1H NMR); format: physicochemical; conditions: DMSO-d6 (800 μl) and D2O (80 μl) without amino acid
Description: Aldolization of ketoaldehyde 4a with amino acids. […] To this solution was added 1 equivalent of either: a) L-proline, […] b) glycine, c) L-lysine hydrochloride or d) L-lysine ethyl ester dihydrochloride. At time points the samples were analyzed by ^1H NMR.

[4] = Aldolization of secoketoaldehyde 4a with atherosclerotic artery and blood fractions (1H NMR); format: in vitro ADME, human; conditions: lyophilized PBS
Description: Aldolization of secoketoaldehyde 4a with atherosclerotic artery and blood fractions. […] To this solution was added either a) atherosclerotic artery (2.1 mg) that had been homogenized in PBS (1 ml) in a tissue homogenizer and then lyophilized to dryness, b) lyophilized human blood (1 ml), c) lyophilized human plasma (1 ml) or d) PBS lyophilized (1 ml). At time points samples were removed and analyzed by ^1H NMR vide supra.

Row | SMILES | lipid-loading of macrophages / foam cell formation (J774.1 macrophages) | random coil of LDL after incubation (circular dichroism) (LDL / apoB-100) | a helical structure of LDL after incubation (circular dichroism) (LDL / apoB-100) [%] | cytotoxicity against T-cell (Jurkat) cell line [1] | cytotoxicity against B-cell (WI-L2) cell line [2] | aldolization of 4a (background) [3] | aldolization of 4a (background) [4]
1 | CC(C)CCC[C@@H](C)[C@H]1CCC2C3C(CC[C@@]21C)[C@@]1(C)CC[C@H](O)C[C@@]1(O)[C@@H]3C=O (stereo partly drawn) [5a, 3β-Hydroxy-5β-hydroxy-B-norcholestane-6β-carboxaldehyde] | foam cells began to appear | 32±+4% | ~20±2 | – | – | – | –
2 | CC(C)CCC[C@@H](C)[C@H]1CC[C@H]2[C@@H]3CC=C4C[C@@H](O)CC[C@]4(C)[C@H]3CC[C@]12C [compound 3, cholesterol] | – | – | – | No cytotoxicity | No cytotoxicity | – | –
3 | CC(C)CCC[C@@H](C)[C@H]1CCC2C(CC=O)C([C@@]3(C)CC[C@H](O)CC3=O)CC[C@@]21C (stereo partly drawn) [4a, 3β-Hydroxy-5-oxo-5,6-secocholestan-6-al] | foam cells began to appear | ~39±2% | ~23±5 | – | – | no aldolization | no aldolization
